The values that follow come from patent US4619823A, “Radioactive iodine labeled metaraminol and diagnostic agent containing platelets labeled therewith” (Nihon Medi-Physics Co., Ltd., priority 1983, dated 1986).

For data set [1], the system named is platelets. To be noted: 100 µM.
Description: Change of the take up rate of ^125 I-labled metaraminol into platelets in coexistence with of a medical compound:
The take up rate of ^125 I-labeled metaraminol into platelets in the coexistence with a medical compound was examined. Calculation was make taking the take up rate in case of ^125 I-labeled metaraminol alone as 100%. ^125 I-labeled metaraminol was added to platelets in a molar concentration of 1×10^-7.
For data set [2] the following is noted: background statement; cited from earlier work.

`CC(C)NCC(O)COc1cccc2ccccc12` (stereo not shown) [Propranolol] came in with an activity in data set [1] of 18 ± 3.1%.

On to `CNCC(O)c1ccc(O)c(O)c1` (stereo not shown) [Adrenaline], for which the activity in data set [1] was 61.6 ± 8.3%.

As for `Oc1cccc2cccnc12` [oxine], the toxicity entry in data set [2] is reported as “relatively high toxicity”.

The compound `Cc1ccc(N(CC2=NCCN2)c2cccc(O)c2)cc1` [Phentolamine] yielded an activity in data set [1] of 43.1 ± 3.4%.

Turning to `CN(C)CCCN1c2ccccc2CCc2ccccc21` [Imipramine], the activity in data set [1] was determined as 45.8 ± 6.3%.

`NCCc1c[nH]c2ccc(O)cc12` [Serotonin] showed an activity in data set [1] of 17.1 ± 10.3%.

Take `CC(N)C(O)c1cccc(O)c1` (stereo not drawn) [metaraminol, alpha-(1-aminoethyl)-3-hydroxybenzenemethanol]: the toxicity entry in data set [2] was “no practical toxicity problem”.
